Patent US10266871B2, “Measurement method for thrombin production” (DAIICHI SANKYO COMPANY, LIMITED, priority 2012, dated 2019)
Entries after “also recorded” stand apart in the source; their conditions may differ.

Columns and labels:
[1] = system: thrombin generation in human PRP; assay: Studies regarding measurement conditions: ADP alone on thrombin generation in human PRP; type: cell-based; conditions: ADP final concentration 5, 10 or 20 μM, no TF
[2] = system: thrombin generation in human PRP; conditions: Example 2; Edoxaban 40, 80 ng/mL; Ticagrelor 3 μg/mL; ADP 10 μM, TF 0.25 pM
Protocol: The obtained blood was centrifuged at room temperature at 150×g for 10 minutes, so that a supernatant was obtained as PRP. The residue obtained after separation of the PRP was centrifuged at room temperature at 2000×g for 10 minutes, so that a supernatant was obtained as platelet poor plasma (hereinafter also referred to as “PPP”). The PRP was diluted with the PPP, so that the number of platelets in the PRP could be 2×10^5 platelets/μL. The obtained PRP was left at 16° C. for 30 minutes or more, and it was then used for the measurement of thrombin generation.
10 μL of a 1% DMSO-containing saline was added to a 96-well plate, and 70 μL of the above obtained human PRP was then added thereto. […]
Five to seven minutes later, 20 μL of the heated FluCa-kit liquid (manufactured by Thrombinoscope BV) was added to the well, so that the reaction was initiated. Using a fluorophotometer (Fluoroskan Ascent, manufactured by Thermo Scientific), the fluorescence intensity at ex 390 nm/em 460 nm was measured at 37° C. for 150 minutes, and using Thrombinoscope software (manufactured by Thrombinoscope BV), Lag time (min), Time to Peak (min), ETP (nM×min), Peak (nM), and MaxR (nM/min) were calculated. […]
Subsequently, individual parameters were calculated in the same manner as that in the above “Studies regarding measurement conditions.” […]

Row | SMILES | Effect of ADP alone on thrombin generation [1] | Effect on thrombin generation, agent used alone compared to controls [2]
1 | Nc1ncnc2c1ncn2[C@@H]1O[C@H](COP(=O)(O)OP(=O)(O)O)[C@@H](O)[C@H]1O [ADP, adenosine diphosphate] | provokes thrombin generation | –
2 | CCCSc1nc(N[C@@H]2C[C@H]2c2ccc(F)c(F)c2)c2nnn([C@@H]3C[C@H](OCCO)[C@@H](O)[C@H]3O)c2n1 [Ticagrelor] | – | suppresses the generation of thrombin; also recorded: significantly suppresses thrombin generation, in terms of Peak, Time to Peak, and MaxR
